Measurements as given in ChEMBL document CHEMBL3616380, “Photocytotoxicity, cellular uptake and subcellular localization of amidinophenylporphyrins as potential photodynamic therapeutic agents: An in vitro cell study” (Bioorg Med Chem Lett, 2015).

Legend:
[1] = Cellular uptake in human HK1 cells assessed per 10^6 cells at 8 uM after 1 to 24 hrs by flow cytometry; format: ADME, cell-based; conditions: hk1, 8 µM
[2] = Dark cytotoxicity against human HK1 cells assessed as cell viability at 1 to 8 uM after 24 hrs by MTT reduction assay; format: cell-based; conditions: hk1, 24 h
[3] = Photocytotoxicity against human HK1 cells assessed as cell viability at 4 uM measured 24 hrs post 12 J/cm'2 irradiation by MTT reduction assay; format: functional; conditions: HK-1, light or radiation study, read-out: Activity
[4] = Photocytotoxicity against human HK1 cells assessed as cell viability at 8 uM measured 24 hrs post 4 J/cm'2 irradiation by MTT reduction assay; format: functional; conditions: HK-1, light or radiation study, read-out: Activity
[5] = Drug uptake in lysosomes of human HK1 cells at 8 uM after 24 hrs by confocal microscopy analysis; format: ADME, cell-based, Lysosome; conditions: hk1, 24 h
[6] = Drug uptake in mitochondria of human HK1 cells at 8 uM after 24 hrs by confocal microscopy analysis; format: ADME; conditions: hk1, 24 h

| Structure (SMILES) | Drug uptake [1] | Activity [2] | viability at 4 µM [3] | viability at 8 µM [4] | Drug uptake [5] | Drug uptake [6] |
| --- | --- | --- | --- | --- | --- | --- |
| N=C(N)c1ccc(-c2c3nc(c(-c4ccc(C(=N)N)cc4)c4ccc([nH]4)c(-c4ccc(C(=N)N)cc4)c4nc(c(-c5ccc(C(=N)N)cc5)c5ccc2[nH]5)C=C4)C=C3)cc1 | Active | Non-toxic | 90% | 50% | Active | – |
| N=C(N)c1ccc(-c2c3nc(c(-c4ccc(C(=N)N)cc4)c4ccc([nH]4)c(-c4ccc(C(=N)N)cc4)c4nc(c(-c5ccc(OCCCOc6ccc(-c7c8nc(c(-c9ccccc9)c9ccc([nH]9)c(-c9ccccc9)c9nc(c(-c%10ccccc%10)c%10ccc7[nH]%10)C=C9)C=C8)cc6)cc5)c5ccc2[nH]5)C=C4)C=C3)cc1 | Active | Non-toxic | 20% | – | Active | – |
| C[n+]1ccc(-c2c3nc(c(-c4cc[n+](C)cc4)c4ccc([nH]4)c(-c4cc[n+](C)cc4)c4ccc([nH]4)c(-c4cc[n+](C)cc4)c4nc2C=C4)C=C3)cc1 [TMPYP4] | Active | Non-toxic | 58% | – | – | Active |
